Legend:
neuroblastoma cells = assay: Viability of neuroblastoma cells with N- and C-terminal CNBr fragments of HBB; type: cell-based, human; conditions: MTS-based proliferation assay and trypan blue exclusion; 72 hr; FIG. 5B
Description: (§1) Neuroblastoma cells were seeded (3×10^4 per well) in a 96-well flat-bottomed tissue culture plate. After an incubation of 24 hr, cells were washed and incubated with the relevant factors (detailed in the following sections) diluted in starvation medium (RPMI-1640 containing 5% bovine serum albumin (BSA); Biological Industries, Kibbutz Beit Haemek, Israel; Sigma-Aldrich). Cell viability under normal conditions (starvation medium containing BSA) or after incubation with the relevant factors was monitored after 72 hr using an XTT (XTT cell proliferation kit; Biological Industries) or MTS-based (CellTiter 96® AQueous One Solution Cell Proliferation Assay; Promega) viability assays according to manufacturer instructions. Cells were also counted using the trypan-blue exclusion assay to verify the results obtained by XTT and MTS-based viability assays.
Human HBB was incubated at a concentration of 2 mg/ml with 50 mg/ml CNBr (Sigma-Aldrich) in 5% trifluoroacetic acid (Halocarbon). […] After 72 hr of incubation cell viability was assessed as described below.
In order to pin-point the active fragment of the human HBB protein, the protein was cleaved to two fragments using cyanogen bromide (CNBr). […] Significance was evaluated using Student's t-test for each variant incubated with N- or C-terminal fragments of human HBB compared to incubation with control media (not shown).

[1] = system: MicroNB cells inoculated to the adrenal gland; assay: Orthotopic MicroNB neuroblastoma model, intranasal Metox versus scrambled-Metox (Example 8); type: in vivo, athymic nude mice; conditions: intranasal 1 mg/kg once a week for 8 weeks
Description: (§2) An orthotopic inoculation to the adrenal gland of athymic nude mice was performed with either 50 μl of PBSX1 supplemented with 5% BSA, or with 1×10^6 MicroNB cells (generated as described previously (Edry Botzer et al., 2011)) suspended in 50 μl of PBSX1 supplemented with 5% BSA. The intra-adrenal inoculation was performed as detailed here (Nevo et al., 2008). In short, anesthesia was induced by ketamine (100 mg/kg body weight) and 2% xylazine (10 mg/kg body weight) administered intraperitoneally. Tumor cells (1×10^6/50 μl) or PBSX1 5% BSA (50 μl) were injected orthotopically into the left adrenal gland of nude mice.
(§3) The development of local tumors in the adrenal gland was monitored and measured weekly with an external digital caliper. The tumor volume in mm^3 was calculated by the ellipsoid volume calculation formula: Volume=[…] (Tomayko and Reynolds, 1989). At the end of the experiments, local adrenal tumors were weighed.
(§4) For examining the presence of micrometastatic cells in the lungs and bone marrow of mice, organs were harvested at the end of the experiment, and immediately snap frozen in dry ice. RNA was isolated from frozen tissues and used for the generation of first-strand cDNA using an M-MLV Reverse Transcriptase (See below, “RNA preparation and Reverse Transcription Polymerase Chain Reaction”). Quantification of human cells in mouse organs was determined by quantitative real-time PCR (qRT-PCR) assays.
(§5) Mice were orthotopically inoculated with MicroNB cells to the adrenal gland to generate local adrenal tumors and lung and bone marrow micrometastasis (see “Orthotopic inoculation of tumor cells”). Fourteen days post tumor cell inoculation mice were treated either intravenously or intranasally with 1 mg/kg (0.02 mg/mouse) of the short inhibitory human HBB peptide, Metox, once a week for 8 weeks.
(§6) For intranasal administration of Metox, the lyophilized peptide was dissolved prior to each administration in Dimethyl Sulfoxide (DMSO) (Sigma-Aldrich) to a concentration of 0.013 mg/μl, and then diluted in sterile PBSX1 to a concentration of 0.4 μg/μl. The dissolved peptide was filtered (0.2 μm) and mice were forced to inhale 50 μl of Metox (0.02 mg/mouse). Control group was forced to inhale 50 μl of a control scrambled peptide, scrambled-Metox (see “Solid-phase synthesis of Metox and scrambled-Metox peptides”).
In an experiment similar to that described in Example 7, athymic nude mice were orthotopically inoculated with MicroNB cells to the adrenal gland. […] Mice were monitored for tumor volume on a weekly basis.

[2] = system: MicroNB cells inoculated to the adrenal gland; assay: Orthotopic MicroNB neuroblastoma model, HBB11p i.v. or inhaled versus PBS (Example 7); type: in vivo, athymic nude mice; conditions: for size of local tumors versus PBS-treated mice: FIG. 7B, 7C
Description: as §2, §3, §4, §5, §6
Twenty four mice were orthotopically inoculated to the adrenal gland with MicroNB cells. Two weeks post inoculation, mice were either intravenously (IV) injected with HBB11p or PBS, or forced to inhale a droplet of soluble HBB11p, once a week for 8 weeks (FIG. 7A). Mice were monitored weekly for tumor volume. At the end of the experiment, local tumors were weighed and organs were harvested and examined for human neuroblastoma cells and for HBB2 expression using real time PCR (FIG. 7A).

[3] = system: MicroNB cells (human neuroblastoma lung micrometastatic variant, MHH-NB11); assay: MTS-based viability assay, MicroNB cells; type: cell-based; conditions: 72 hr incubation, versus control media
Source text: (§7) The human neuroblastoma lung micrometastatic (MicroNB) and macrometastatic (MacroNB) variants were generated using a mouse model for human neuroblastoma metastasis (Nevo et al., 2008) from the parental cell lines MHH-NB11 (Pietsch et al., 1988) and SH-SY5Y (Biedler et al., 1978) as detailed here (Edry Botzer et al., 2011), and were maintained in culture as previously described (Nevo et al., 2008). The MicroNB and MacroNB variants were previously designated DisNB and MetNB, respectively (Edry Botzer et al., 2011). Authentication of MicroNB and MacroNB cells was performed by short tandem repeat analysis of DNA using the Type-it Microsatellite PCR Kit (Qiagen, Valencia, Calif.), for the genes published by the American Type Culture Collection (ATCC) (Manassas, Va.). The parental cell line MHH-NB11 was kindly provided by Dr. T. Pietsch (Department of Neuropathology, University of Bonn Medical Center, Bonn, Germany).
as §1
Circular dichroism analysis of human hemoglobin (HB), hemoglobin subunit alpha (HBA) and subunit beta (HBB) indicated a helical structure for all three proteins (FIG. 3C). […] Neuroblastoma cells were seeded (3×10^4 per well) in a 96 well flat-bottomed tissue culture plate. After 24 hr of incubation cells were washed and incubated with human HBB dissolved in starvation medium (RPMI 5% BSA) to the indicated concentrations. Cell viability under normal conditions (starvation medium) or after incubation with human HBB was monitored after an incubation of 72 hr using an MTS-based viability assay (CellTiter 96® AQueous One Solution Cell Proliferation Assay, Promega) according to the manufacturer instructions. Data are means of three independent experiments±SD. Significance was evaluated using Student's t-test for each variant incubated with human HBB compared to incubation with control media (con).

[4] = system: MacroNB cells (human neuroblastoma lung macrometastatic variant); assay: MTS-based viability assay, MacroNB cells; type: cell-based; conditions: 72 hr incubation, versus control media
Source text: as §7
as §1, with “After an incubation of 24 hr, cells were washed and incubated with the relevant factors (detailed in the following sections) diluted in starvation medium (RPMI-1640 containing 5% bovine serum albumin (BSA); Biological Industries, Kibbutz Beit Haemek, Israel; Sigma-Aldrich).” left out
Circular dichroism analysis of human hemoglobin (HB), hemoglobin subunit alpha (HBA) and subunit beta (HBB) indicated a helical structure for all three proteins (FIG. 3C). […] Cell viability under normal conditions (starvation medium) or after incubation with human HBB was monitored after an incubation of 72 hr using an MTS-based viability assay (CellTiter 96® AQueous One Solution Cell Proliferation Assay, Promega) according to the manufacturer instructions. […] Significance was evaluated using Student's t-test for each variant incubated with human HBB compared to incubation with control media (con).

[5] = system: MCF-7 breast carcinoma cells; assay: Viability of cancerous cell lines, MCF-7; conditions: MTS-based assay; FIG. 3E
Description: as §1
When incubated with the highest amount of HBB (100 μg), the viability of the following cell lines was inhibited: the breast cancer cell lines T47D and MCF-7, the prostate cancer cell line 22RVi, the cervical cancer cell line Hela, and the melanoma cell lines RALL and RKTJ.

[6] = HBB11p once a week for 8 weeks, data not shown

C-terminal fragment: 91 amino acid C-terminal fragment of human HBB from CNBr cleavage, SEQ ID NO:4
influence on neuroblastoma cell viability (in words) (neuroblastoma cells): responsible for the inhibitory activity

ENFRLLGNVLVCVLA (listed as Homo sapiens) [HBB11p]
weight of local tumors of scrambled-Metox treated mice relative to Metox treated mice ([1]; 70 days post inoculation, FIG. 8C, 8D): significantly higher
metastatic load of MicroNB cells in lungs versus scrambled-Metox ([1]; Real-Time PCR, FIG. 8E): significantly lower
metastatic load of MicroNB cells in bone marrow versus scrambled-Metox ([1]; Real-Time PCR, FIG. 8F): significantly lower
local tumor volume, Metox versus scrambled-Metox treated mice ([1]; twenty days after inoculation, more significant with time, FIG. 8B): a difference was apparent
bone marrow metastasis versus PBS-treated mice [2, 6]: significantly inhibited as well
liver metastasis versus PBS-treated mice [2, 6]: significantly inhibited as well
spleen metastasis versus PBS-treated mice [2, 6]: significantly inhibited as well
lung metastasis versus PBS-treated mice ([2]; HBB11p once a week for 8 weeks, real time PCR, FIG. 7D): significantly inhibited
size of local tumors versus PBS-treated mice ([2]; inhaled droplet of HBB11p once a week for 8 weeks): significantly smaller
size of local tumors versus PBS-treated mice ([2]; intravenous HBB11p once a week for 8 weeks): significantly smaller
influence on viability of MicroNB cells (in words) ([3]; listed as Peptide number 11): significantly inhibited the viability
influence on viability of MicroNB cells (in words) ([3]; listed as peptide 11): even greater than that caused by HBB

HBA: alpha subunit of human hemoglobin, HPLC-separated from native human hemoglobin [reference compound]
influence on viability of MacroNB cells (in words) [4]: did not influence cell viability
influence on viability of MicroNB cells (in words) [3]: did not influence cell viability

HBB2: beta 2 subunit of mouse hemoglobin, SEQ ID NO:1; HPLC peak no. 4 of mouse lung-derived factors
influence on viability of MacroNB cells (in words) [4]: inhibited cell viability
influence on viability of MicroNB cells (in words) [3]: inhibited cell viability

N-terminal fragment: N-terminal fragment of human HBB from CNBr cleavage, SEQ ID NO:3
influence on neuroblastoma cell viability (in words) (neuroblastoma cells): exhibited an inhibitory effect however to a lesser extent

whole human hemoglobin protein: native human hemoglobin (Sigma), whole protein [reference compound]
influence on viability of MCF-7 breast carcinoma cells (in words) [5]: inhibited cell viability as well but not to the same extent as HBB
